Test results published in ChEMBL document CHEMBL4888484, “Replenishing the malaria drug discovery pipeline: Screening and hit evaluation of the MMV Hit Generation Library 1 (HGL1) against asexual blood stage Plasmodium falciparum ,using a nano luciferase reporter read-out” (2022).

Assays:
Plasmodium falciparum [1] = experiment: Hit confirmation in dose-response curve in Dd2 pLDH assay, at 72h; format: functional, organism-based; design: timepoint 72 hour; conditions: Dd2, Erythrocyte
Plasmodium falciparum [2] = experiment: Hit confirmation in dose-response curve in NF54 nanoGlo assay, at 12h; format: functional, organism-based, Erythrocyte; design: timepoint 12 hour; conditions: Plasmodium falciparum, NF54, Erythrocyte, 12 h
Plasmodium falciparum [3] = experiment: Hit confirmation in dose-response curve in NF54 nanoGlo assay, at 72h; format: functional, organism-based, Erythrocyte; design: timepoint 72 hour; conditions: Plasmodium falciparum, NF54, Erythrocyte, 72 h
[4] = Hit confirmation in dose-response curve in HepG2 cytotoxicity assay, at 72h; format: toxicity, cell-based; design: timepoint 72 hour; conditions: human, HepG2 cells
Plasmodium falciparum [5] = experiment: Hit confirmation in dose-response curve in NF54 pLDH assay, at 72h; format: functional, organism-based; design: timepoint 72 hour; conditions: NF54, Erythrocyte

SMILES | IC50 (Plasmodium falciparum [1]) [µM] | IC50 (Plasmodium falciparum [2]) [µM] | IC50 (Plasmodium falciparum [3]) [µM] | IC50 at 72 h [4] [µM] | IC50 (Plasmodium falciparum [5]) [µM]
Cn1c(N)c(S(=O)(=O)N2CCN(c3ccccc3Cl)CC2)c(=O)n(C)c1=O | > 10 | 0.501 | 1.51 | > 10 | > 10
CCc1ccc(CN2CCC[C@H](c3ncc[nH]3)C2)nc1 | 1.78 | 10.7 | 1.15 | > 10 | 1.55
Cc1cccc(CN2CCC[C@H](C(=O)c3ccc4c5c(cccc35)CC4)C2)n1 | 5.5 | 4.57 | 1.66 | > 10 | 3.72
COc1ccc(CN(Cc2ccncc2)CC2CCN(C3CCN(C)CC3)CC2)c(F)c1 | 1.17 | 2.82 | 1.29 | > 10 | 1.45
Cc1cnccc1NCCNC1CCN(c2ccc(Cl)cc2)CC1 | 0.372 | 0.417 | 0.316 | 5.25 | 0.363
Cc1cc(N2C[C@H]3CC[C@@H](C2)[C@H]3N(C)C)nc(Nc2cccc(O)c2)n1 | 1.78 | 5.01 | 1.51 | > 10 | 2.04
C[n+]1ccc(-c2ncc(-c3ccccc3)o2)c2ccccc21 | 1.51 | 6.17 | 0.759 | > 10 | 1.41
Cc1ccc(OCCNc2cc([C@H]3C[C@H](N)C3)nc(C3CC3)n2)cc1C | 4.37 | 5.62 | 3.31 | > 10 | 4.47
Oc1cccc(CN2CCC3(CC2)C[C@H](c2ccccc2)CN(C2CC2)C3)c1 | 6.31 | 5.13 | 3.24 | > 10 | 6.31
O=C1c2ccccc2C(c2ccc(NC(=O)c3cccc4ccccc34)cc2)(c2ccc(NC(=O)c3cccc4ccccc34)cc2)c2ccccc21 | 1.58 | > 10 | 0.871 | > 10 | 4.47
CC1(C)Cc2nc3ccccc3c(NCc3ccccc3)c2[C@@H](O)C1 | 2.63 | 4.37 | 2.34 | > 10 | 3.98
S=c1cc(-c2ccccc2)n(Cc2ccco2)c2c1CCCC2 | 6.46 | 8.13 | 2.57 | > 10 | 6.46
Oc1cc(CC[C@H]2CCCCN2)cc(-c2cnc3ccccc3n2)c1 | 1.95 | 2.09 | 1.58 | > 10 | 2.75
Cc1nnc(NC(c2cnc3ccccc3c2)[C@H]2C[C@@H](O)C2)s1 (stereo not given in full) | > 10 | 1.58 | 4.07 | > 10 | > 10
C=CCCC(CN1C[C@H]2CC=CC[C@H]2C1)Oc1ncc(F)cn1 (stereo not given in full) | > 10 | 7.41 | 0.0178 | > 10 | 0.0224
COC(=O)c1c(NC(C)=O)c2cc(NC3CCOCC3)cnc2n1CCc1ccc(OC)cc1 | > 10 | > 10 | > 10 | > 10 | > 10
N[C@H]1C[C@@H](c2cc(N3CCN(C4CCCCC4)CC3)nc(N3CCCC3)n2)C1 | 2.29 | 5.75 | 2 | > 10 | 4.17
CN1CCN(Cc2cc3cc4c(cc3nc2-c2ccc(Cl)cc2)OCO4)CC1=O | > 10 | 4.47 | 4.07 | > 10 | > 10
CCc1cc(N2C[C@@H]3NC(=O)CN(C)Cc4ccc(OC)c(c4)Oc4cccc(c4)CO[C@H]3C2)nc(N(C)C)n1 | 3.47 | 4.79 | 2.04 | > 10 | 3.47
COc1nc(N2[C@@H]3CC[C@H]2C[C@@H](OC)C3)ncc1F | > 10 | > 10 | 4.07 | > 10 | 6.17
Cc1cccc2c(-c3cc(N)nc(N)n3)c[nH]c12 | 1.1 | 3.16 | 1 | > 10 | 1.2
Cc1cc(N)nc(Nc2ccc(Nc3ccccc3)cc2)n1 | 5.37 | 6.46 | 2.24 | > 10 | 3.31
CN1CC[C@H](CN(C)Cc2ccc3cc(O)ccc3c2)C1 | 3.02 | 4.27 | 1.78 | > 10 | 0.832
O=C1NC(c2ccccc2)=NC12CCN(Cc1c(F)cccc1F)CC2 | 4.27 | > 10 | 2.09 | > 10 | 6.46
Cn1c(Cc2n[n+]3c(-c4ccccc4)cc(-c4ccccc4)nc3n2C)n[n+]2c(-c3ccccc3)cc(-c3ccccc3)nc12 | 0.234 | 1.74 | 0.257 | 4.79 | 0.331

SMILES | IC50 (Plasmodium falciparum [1]) [µM] | IC50 (Plasmodium falciparum [2]) [µM] | IC50 (Plasmodium falciparum [3]) [µM] | IC50 at 72 h [4] [µM] | IC50 (Plasmodium falciparum [5]) [µM]
CC[n+]1ccc(-c2ncc(-c3ccc(C(C)(C)C)cc3)o2)cc1 | 0.417 | > 10 | 0.589 | > 10 | 0.182
COc1ccc(-c2cc(-c3ccccc3)nc(N3CCC(C)CC3)n2)cc1 | > 10 | > 10 | 9.55 | > 10 | > 10
CN1CCN([C@H]2CCN(c3ccnc4ccc(Cl)cc34)C[C@H]2CCCO)CC1 | 1.48 | 2.95 | 1.74 | > 10 | 2.14
CNC(=O)[C@@H]1C[C@H](NCc2cc(OC)c(OC)c(OC)c2)CN1CC(c1ccccc1)c1ccccc1 | 2.82 | 3.63 | 2.14 | > 10 | 3.63
CCN1CCN(C2CCN(c3ncc(F)c(OC)n3)CC2)CC1 | > 10 | > 10 | 2.57 | > 10 | 3.89
Nc1nc(N2CCN(c3ccc(F)c(Cl)c3)CC2)cc([C@H]2C[C@@H](N)C2)n1 | 6.31 | 6.31 | 2.75 | > 10 | 5.75
O[C@H]1CNCC[C@@H]1Nc1cc(-c2ccccc2)nc2ccccc12 | 1.78 | 8.51 | 2 | > 10 | 3.8
Cc1ccc(-c2cc(O)cc(CC[C@H]3CCCCN3)c2)c(C)n1 | 1.66 | 5.62 | 1.86 | > 10 | 2.82
CN(Cc1ccc(-c2ccccc2)cc1)c1cc([C@H]2C[C@@H](N)C2)nc(N)n1 | 3.24 | 3.98 | 2.19 | > 10 | 4.17
COc1c(C)cc(C(=O)[C@H]2CCCN(c3cc(N)ncn3)C2)cc1C | > 10 | 5.5 | 5.37 | > 10 | > 10
COc1nc(-c2cccc(C(=O)NCC3CCOCC3)c2)ncc1F | > 10 | > 10 | 0.575 | > 10 | 1.66
O=C(Nc1cccc(Cl)c1)Nc1cccc(-c2cnc3n2CCC3)c1 | 3.89 | 5.89 | 2.4 | > 10 | 5.37
CCC(CC)C(=O)Nc1cc(C2CC2)nn1-c1nc(-c2ccccc2)cc(=O)[nH]1 | 3.55 | > 10 | 2.14 | > 10 | 6.61
COc1ccc(CNCCC2C(C)CN(C)C(C)C2Cc2ccccc2)cc1 (stereo not given) | 2.63 | 4.07 | 1.66 | > 10 | 3.63
O=C(c1cc(-c2ccco2)n[nH]1)N1CCC(N2CCC(Oc3ccccc3F)CC2)CC1 | 4.68 | > 10 | 2.82 | > 10 | 1.82
N[C@H]1C[C@H](c2cc(NCCCc3cccnc3)nc(C3CC3)n2)C1 | 2.04 | 3.55 | 1.58 | > 10 | 2
CC(CC1OCC(C[N+]2(Cc3ccccc3)CCCCC2)O1)CC(C)(C)C (stereo not given) | 2.51 | > 10 | 0.912 | > 10 | 2.04
COc1ccc2cccc(NC(=O)c3cc(-c4cc(OC)c(OC)c(OC)c4)n[nH]3)c2n1 | > 10 | 9.33 | 2.19 | > 10 | 9.77
Cc1c(-c2ccc(F)cc2)[nH]c2ccc(CNc3nccc(N(C)C)n3)cc12 | 3.31 | 3.89 | 1.95 | > 10 | 3.8
Cc1nc(N2CCC(c3nc(-c4ccccc4)no3)CC2)c2c(C)noc2n1 | > 10 | 1.86 | 2.51 | > 10 | > 10
CN1CCC(N2CCC(CN(Cc3ccncc3)Cc3c(F)cccc3Cl)CC2)CC1 | 0.603 | 1.74 | 0.708 | > 10 | 1.17
O=C(N[C@H]1CC[C@@H]2CCC[C@@H]21)c1c[nH]c(=O)c(Cl)c1 | 5.13 | 2.45 | 2.19 | > 10 | 3.98
N#Cc1cccc(-c2n[nH]c3c2CN(c2ccc(-c4ccccc4)nn2)CC3)c1 | 3.09 | 2.63 | 1.2 | > 10 | 4.79
O=C(CCCc1ccccc1)Nc1cc(C2CC2)nn1-c1nc(-c2ccccc2)cc(=O)[nH]1 | 3.63 | > 10 | 3.72 | > 10 | 6.03
